Counter-ions that a name gives are not always drawn.
Columns and labels:
Aβ 1-40 [1] = target: T1, Aβ 1-40 (Homo sapiens, UniProt P05067); assay: Sedimentation velocity of Aβ quaternary structures in the presence of inhibitors; assay type: biochemical; set-up: Amyloid-β (Aβ 1-40) was purchased from California Peptides (Lot # SF104); purchased California Peptides Lot # SF104; settings: for Amount of nonfibrillar assemblies (protofibrils) formed by Aβ alone relative to that obtained in the presence of compound: 20 hour incubation; for Sedimentation velocities, 20 h (average sedimentation coefficient): Aβ 1-40 100 μM + compound 100 μM, 37° C.
Procedure: Probing the Mechanism of Amyloid Fibril Formation Inhibition using Sedimentation Velocity Experiments. To probe the mechanism by which apomorphine and its structural analogues inhibit Aβ fibril formation, sedimentation velocity was used to determine the distribution and molecular size of quaternary structures of Aβ in the presence and absence of inhibitors. Aβ samples (100 μM) in a pH 7.4 buffer (50 mM Tris-HCl, 150 mM NaCl) were incubated at 37° C. for 1-10 days in the presence and absence of inhibitors, then transferred to 25° C. for 1-3 hours before the sedimentation experiments were carried out at 20° C. The sedimentation properties of Aβ 1-40 in the absence and presence of inhibitors were obtained from data collected on a temperature controlled Beckman XL-1 using 400-420 μL of peptide solutions and data were recorded at rotor speeds of 3,000-30,000 rpm in continuous mode with a step size of 0.005 cm. The sedimentation velocity absorbance profiles were then analyzed using the time derivative (dc/dt) analysis program, which was provided by J. Philo, to obtain the sedimentation coefficient distribution g(*s) for all the quaternary structures in solution as described previously (37, 38).
Fitting of the g(*s) profiles allows for the determination of the sedimentation coefficient (peak position, with a unit of Svedberg, 1 S=10^−13 s) and the diffusion coefficient (from the peak width, with a unit of Fick, 1 F=[…]). This method has the advantage of allowing for the calculation of the molecular weight of the sedimenting species using equation II since s and D can be obtained from the fitting analysis. [formula]
In the cases where the diffusion coefficient cannot be determined accurately, the molecular weight of a spherical protein can still be estimated by combining the Svedberg equation and Stokes equation for the frictional coefficient to obtain equation III which utilizes the estimated sedimentation coefficient: [formula]
Sedimentation velocity was also used to determine the amount of soluble Aβ and Aβ monomer in solution after sedimentation of Aβ aggregates. […] The percent of monomeric species in solution was calculated using equation IV at 50,000 rpm and after complete sedimentation of Aβ high MW oligomeric species. Sedimentation equilibrium studies of the unsedimented species were carried out to determine whether a monomer, dimer or a mixture was present in solution. % of unsedimented Aβ=1−(Absorbance(290 nm, 3000 rpm)−Absorbance(290 nm, 20,000-30,000 rpm))×100 (IV)

Aβ 1-40 [2] = target: T1, Aβ 1-40; assay: Electron microscopy of Aβ aggregates in the presence of inhibitor; assay type: biochemical; set-up: Amyloid-β (Aβ 1-40) was purchased from California Peptides (Lot # SF104); purchased California Peptides Lot # SF104; settings: for Protofibril assembly into fibrils when compound is added to pre-incubated Aβ (EM and sedimentation velocity): Aβ pre-incubated 18-20 hr at 37° C., then three to nine days with compound
Procedure: Electron Microscopy. Electron microscopy was used to follow the changes in size and structural morphology of Aβ aggregates in the presence and absence of inhibitor at 37° C. as a function of time. EM samples were prepared by placing 5 μL of the Aβ solution on a carbon-coated grid and allowing the solution to stand for 2 min before removing excess solution. The grid was then washed once with distilled water and once with 1% uranyl acetate before staining the sample with fresh 1% uranyl acetate for another 2 min. The samples were then studied in a Phillips CM-100 electron microscope. The grids were thoroughly examined to get an overall statistical evaluation of the structures present in the sample. All electron micrographs were taken at 100 kV.

Aβ 1-40 [3] = target: T1, Aβ 1-40; assay: Thioflavin T (ThT) fluorescence assay for fibril formation; assay type: biochemical; set-up: Amyloid-β (Aβ 1-40) was purchased from California Peptides (Lot # SF104); purchased California Peptides Lot # SF104; settings: for Thioflavin T signal after longer incubation: longer incubation at 37° C., some long fibrils formed; for Thioflavin T signal with sodium metabisulphite added: stock solutions containing 1% (v/v) sodium metabisulphite, 37° C., pH 7.4, 3 days
Procedure: Preparation of Stock Peptide Solutions for Fibrillization Studies. Stock solutions of the inhibitors were prepared by dissolving the compounds at a concentration of 5-7 mM in water or in 1-1.5% DMSO solutions (for compounds with reduced solubility). Amyloid-β (Aβ 1-40) was purchased from California Peptides (Lot # SF104). Aβ 1-40 stock solutions were prepared by dissolving purified and lyophilized peptide in cold double distilled water to yield stock solutions at a concentration of 2 mg/mL. The stock solutions were used within 10-30 minutes of dissolution. Samples for fibril formation assay were prepared by diluting the appropriate amount of Aβ stock with pH 7.4 Tris-HCl buffer (50 mM Tris, 150 mM NaCl) to afford a final peptide concentration of 100 μM. […] Analytical ultracentrifugation, and electron microscopy were periodically used to ensure that we start our experiments with a hydrodynamically defined Aβ monomer, and the absence of any preformed fibrils in solution.
Thioflavin T (ThT) Fluorescence Assay for Fibril Formation. Thioflavin T was purchased from Aldrich (70% purity) and was recrystallized from benzene/ethanol (1:1) to afford yellow crystals (36). Thioflavin T binding assays were performed by addition of 50 μL of 100 μM Aβ solutions, which were incubated at 37° C. in the absence and presence of inhibitors, to 450 μL solution of 10 μM Thioflavin T in phosphate buffer (10 mM phosphate, 100 mM KCl). The solutions were mixed and fluorescence measurements were recorded in Biosystems model spectrofluorimeter at 25° C. using a 1 cm path length quartz cell. An excitation slit width of 4 nm and an emission slit width of 8 nm were employed. The excitation wavelength was set to 450 nm and emission monitored from 460-630 nm. The relative fluorescence at 482 nm was plotted for each sample, and was used as a measure of the amount of fibrillar aggregates in solution.

Aβ 1-40 [4] = target: T1, Aβ 1-40; assay: Aβ 1-40 fibril formation inhibition judged by ThT, sedimentation velocity and electron microscopy; settings: Aβ 1-40 100 μM; for Effect on Aβ 1-40 fibril formation (ThT, sedimentation velocity, EM): pH 7.4, 37° C., 3 days
[5] = Aβ coincubated with D030, 11 days at 37° C.

T1 sequence (P05067 672-711): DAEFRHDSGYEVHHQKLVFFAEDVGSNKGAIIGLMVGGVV

Structure (SMILES)	Amount of nonfibrillar assemblies (protofibrils) formed by Aβ alone relative to that obtained in the presence of compound (Aβ 1-40 [1]) [%]	Sedimentation velocities, 20 h (average sedimentation coefficient) (Aβ 1-40 [1]) [S]	Protofibril assembly into fibrils when compound is added to pre-incubated Aβ (EM and sedimentation velocity) (Aβ 1-40 [2])	Thioflavin T signal after longer incubation (Aβ 1-40 [3])	Thioflavin T signal with sodium metabisulphite added (Aβ 1-40 [3])	Effect on Aβ 1-40 fibril formation (ThT, sedimentation velocity, EM) (Aβ 1-40 [4])	further results
Br.CCCN1CCc2cc(O)cc3c2[C@H]1Cc1ccc(O)c(O)c1-3 [D029, R(−)-2,10,11-Trihydroxy-N-propylnorapomorphine hydrobromide]	~30	35	exhibited similar behavior	did not exhibit any changes	restoration of the ThT signal	–	–
COc1ccc2c(c1O)-c1c(OC)c(OC)cc3c1[C@H](C2)N(C)CC3.Cl [isocrydine, Isocrydine hydrochloride]	–	–	–	–	–	showed no effect	–
CCCN1CCc2cccc3c2[C@H]1Cc1ccc2c(c1-3)OCO2.Cl [M121, R(−)-10,11-Methylenedioxy-N-n-propylnoraporphine hydrochloride]	–	–	–	–	–	showed no effect	–
Br.Oc1ccc2c(c1O)-c1cccc3c1[C@@H](C2)NCC3 [D040, R(−)-Norapomorphine hydrobromide]	~30	31	exhibited similar behavior	did not exhibit any changes	restoration of the ThT signal	–	–
COc1ccc2c(c1O)-c1c3c(cc4c1[C@H](C2)N(C)CC4)OCO3 [bulbocapnine, Bulbocapnine hydrochloride]	–	–	–	–	–	showed no effect	–
Br.CN1CCc2cc(O)cc3c2[C@H]1Cc1ccc(O)c(O)c1-3 [D030, R(−)-2,10,11-Trihydroxyaporphine hydrobromide]	~30	33	least effective compound towards inhibiting protofibril assembly into fibrils	did not exhibit any changes	restoration of the ThT signal	–	Concentration at which Aβ 1-40 fibril formation is inhibited (Aβ 1-40 [4]; incubation period of three days): 100 µM; Incubation period during which nonfibrillar assemblies remain the dominant species (EM and sedimentation velocity) (Aβ 1-40 [2]; 37° C., incubation extended to nine days): 1 to 3 days; Structures seen by EM after 9 days (Aβ 1-40 [2]; Aβ 100 μM, pH 7.4, 9 days at 37° C.): accumulation of some long fibrils in solution; Structures seen by EM after 11 days (Aβ 1-40 [2]; [5]): significant amounts of fibrils in solution; Thioflavin T signal after 11 days (Aβ 1-40 [3]; [5]): did not show a ThT signal
COc1ccc2c(c1O)-c1cccc3c1[C@@H](C2)N(C)CC3.Cl [R(−)-apocodeine, R(−)-Apocodeine hydrochloride]	–	–	–	–	–	showed no effect	–
CCCN1CCc2cccc3c2[C@H]1Cc1ccc(O)c(O)c1-3.Cl [D027, R(−)-Propylnorapomorphine hydrochloride]	~30	33	no fibril formation	did not exhibit any changes	restoration of the ThT signal	–	Inhibition of Aβ fibril formation by EM, aged or freshly prepared stock solutions (Aβ 1-40 [2]; three to four days at 37° C.): effective inhibition of Aβ fibril formation

From patent publication US20080096909A1, “APOMORPHINE INHIBITORS OF AMYLOID-BETA (ABETA) FIBRIL FORMATION AND THEIR USE IN AMYLOIDOSIS BASED DISEASE” (priority 2001, published 2008)
